Tested on: beta-TC6 cells
Test: Insulin HTRF assay (relative activity Ar) in beta-TC6 cells
Assay type: cell-based, mouse
Conditions: Mus musculus, Beta-TC6, 4 h, insulin HTRF, supernatant of beta-TC6 cells, incubation with test compound at 37°C for 2, 3, 4h; read-out: Ar (relative activity)
Procedure, shortened: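 beta-TC6 cells (15k/well, seeded 24 or 48 h) washed, then exposed to compound in induction buffer (0.5% DMSO final) for 2, 3 or 4 h at 37°C.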

Compound | Emax [%]
COc1ccc(Nc2nccc3[nH]c(-c4ccc(OC)c(OC)c4)nc23)cc1 [Compound 345, 2-(3,4-dimethoxyphenyl)-N-(4-methoxyphenyl)-1H-imidazo[4,5-c]pyridin-4-amine] | > 100
COc1ccc(Cn2cnc3cnc(-c4cccnc4)cc32)cc1OC [Compound 737, 1-[(3,4-dimethoxyphenyl)methyl]-6-(3-pyridyl)imidazo[4,5-c]pyridine] | 50 to 100
Cc1cccc(CNc2nc3cnc(-c4ccc(N)nc4)cc3n2C)c1 [Compound 811, 6-(6-amino-3-pyridyl)-1-methyl-N-(m-tolylmethyl)imidazo[4,5-c]pyridin-2-amine] | 30 to 50
CNc1nc2cnc(Nc3ccc4c(c3)OCCO4)cc2n1Cc1ccccc1 [Compound 528, 1-benzyl-N6-(2,3-dihydro-1,4-benzodioxin-6-yl)-N2-methyl-imidazo[4,5-c]pyridine-2,6-diamine] | 50 to 100
Fc1cccc(-c2nc3c(NCCc4ccccn4)nccc3[nH]2)c1 [Compound 406, 2-(3-fluorophenyl)-N-[2-(2-pyridyl)ethyl]-1H-imidazo[4,5-c]pyridin-4-amine] | 50 to 100
CC(=O)Nc1ccc(Nc2cc3c(cn2)cc(-c2ccc(C(=O)N(C)C)cc2)n3Cc2ccccc2)cc1 [Compound 57, 4-[6-(4-acetamidoanilino)-1-benzyl-pyrrolo[3,2-c]pyridin-2-yl]-N,N-dimethyl-benzamide] | 30 to 50
COc1ccc(-c2cc3c(cn2)ncn3-c2cccc(C(F)(F)F)c2)cc1OC [Compound 734, 6-(3,4-dimethoxyphenyl)-1-[3-(trifluoromethyl)phenyl]imidazo[4,5-c]pyridine] | 30 to 50
c1cncc(-c2cc3cnc(Nc4ccncc4)cc3[nH]2)c1 [Compound 76, 2-(3-pyridyl)-N-(4-pyridyl)-1H-pyrrolo[3,2-c]pyridin-6-amine] | 30 to 50
Nc1cccc(-c2cc3cnc(Nc4cccnc4)cc3[nH]2)c1 [Compound 2, 2-(3-aminophenyl)-N-(3-pyridyl)-1H-pyrrolo[3,2-c]pyridin-6-amine] | 30 to 50
COc1ccc(-c2nc3c(Nc4cccc(N(C)C)c4)nccc3[nH]2)cc1OC [Compound 343, N1-[2-(3,4-dimethoxyphenyl)-1H-imidazo[4,5-c]pyridin-4-yl]-N3,N3-dimethyl-benzene-1,3-diamine] | 50 to 100
Cn1cc(-c2cc3c(Nc4cccnc4)nccc3n2C)cn1 [Compound 247, 1-methyl-2-(1-methylpyrazol-4-yl)-N-(3-pyridyl)pyrrolo[3,2-c]pyridin-4-amine] | > 100
c1cncc(-c2cc3c(Nc4ccc5c(c4)OCCO5)nccc3[nH]2)c1 [Compound 232, N-(2,3-dihydro-1,4-benzodioxin-6-yl)-2-(3-pyridyl)-1H-pyrrolo[3,2-c]pyridin-4-amine] | 50 to 100
CNc1nc2cnc(Nc3ccc(C(N)=O)cc3)cc2n1Cc1ccc(OC)c(OC)c1 [Compound 664, 4-[[1-[(3,4-dimethoxyphenyl)methyl]-2-(methylamino)imidazo[4,5-c]pyridin-6-yl]amino]benzamide] | 50 to 100
Cc1ccc(-c2nc3ccncc3[nH]2)cc1 [Compound 774, 2-(p-tolyl)-3H-imidazo[4,5-c]pyridine] | 0 to 30
CN(C)c1ccc(-c2cc3c(N4CCOCC4)nccc3[nH]2)cc1 [Compound 189, N,N-dimethyl-4-(4-morpholino-1H-pyrrolo[3,2-c]pyridin-2-yl)aniline] | > 100
Cc1cccc(CNc2nc3cnc(-c4ccc(Cl)cc4)cc3n2C)c1 [Compound 581, 6-(4-chlorophenyl)-1-methyl-N-(m-tolylmethyl)imidazo[4,5-c]pyridin-2-amine] | 30 to 50
Clc1ccccc1Nc1cc2[nH]c(-c3cccnc3)cc2cn1 [Compound 78, N-(2-chlorophenyl)-2-(3-pyridyl)-1H-pyrrolo[3,2-c]pyridin-6-amine] | 50 to 100
CN1CCN(c2nccc3[nH]c(-c4cccc(OC(F)(F)F)c4)nc23)CC1 [Compound 442, 4-(4-methylpiperazin-1-yl)-2-[3-(trifluoromethoxy)phenyl]-1H-imidazo[4,5-c]pyridine] | 30 to 50
CS(=O)(=O)c1ccc(Nc2cc3[nH]c(-c4cn[nH]c4)cc3cn2)cc1 [Compound 120, N-(4-methylsulfonylphenyl)-2-(1H-pyrazol-4-yl)-1H-pyrrolo[3,2-c]pyridin-6-amine] | > 100
c1ccc(-c2nc3c(NCC4CC4)nccc3[nH]2)cc1 [Compound 339, N-(cyclopropylmethyl)-2-phenyl-1H-imidazo[4,5-c]pyridin-4-amine] | 30 to 50
Cn1c(-c2ccccc2)cc2c(Nc3cccc(O)c3)nccc21 [Compound 328, 3-[(1-methyl-2-phenyl-pyrrolo[3,2-c]pyridin-4-yl)amino]phenol] | 30 to 50
CNc1nc2cnc(-c3ccoc3)cc2n1Cc1ccccc1 [Compound 798, 1-benzyl-6-(3-furyl)-N-methyl-imidazo[4,5-c]pyridin-2-amine] | 30 to 50

Compound | Emax [%]
CC(=O)Nc1ccc(Nc2cc3c(cn2)nc(NCc2cccc(C)c2)n3C)cc1 [Compound 576, N-[4-[[1-methyl-2-(m-tolylmethylamino)imidazo[4,5-c]pyridin-6-yl]amino]phenyl]acetamide] | 50 to 100
CN(C)c1ccc(-c2cc3cnc(Nc4cccc(O)c4)cc3n2Cc2ccccc2)cc1 [Compound 60, 3-[[1-benzyl-2-(4-dimethylaminophenyl)pyrrolo[3,2-c]pyridin-6-yl]amino]phenol] | 0 to 30
COc1ccc(-c2nc3c(NCc4ccc(N(C)C)cc4)nccc3[nH]2)cc1OC [Compound 350, 2-(3,4-dimethoxyphenyl)-N-[(4-dimethylaminophenyl)methyl]-1H-imidazo[4,5-c]pyridin-4-amine] | 30 to 50
Cn1cc(-c2cc3cnc(Nc4ccncc4)cc3n2C)cn1 [Compound 135, 1-methyl-2-(1-methylpyrazol-4-yl)-N-(4-pyridyl)pyrrolo[3,2-c]pyridin-6-amine] | 50 to 100
CN(C)C(=O)c1ccc(-c2cc3c(Nc4ccc(C(N)=O)cc4)nccc3n2C)cc1 [Compound 213, 4-[4-(4-carbamoylanilino)-1-methyl-pyrrolo[3,2-c]pyridin-2-yl]-N,N-dimethyl-benzamide] | 50 to 100
COc1cc(Nc2cc3[nH]c(-c4cn[nH]c4)cc3cn2)cc(C(F)(F)F)c1 [Compound 116, N-[3-methoxy-5-(trifluoromethyl)phenyl]-2-(1H-pyrazol-4-yl)-1H-pyrrolo[3,2-c]pyridin-6-amine] | 0 to 30
CNc1nc2cnc(Nc3cccc(NC(C)=O)c3)cc2n1CC1CC1 [Compound 574, N-[3-[[1-(cyclopropylmethyl)-2-(methylamino)imidazo[4,5-c]pyridin-6-yl]amino]phenyl]acetamide] | 50 to 100
Oc1cccc(Nc2nccc3[nH]c(-c4ccc5c(c4)OCCO5)nc23)c1 [Compound 418, 3-[[2-(2,3-dihydro-1,4-benzodioxin-6-yl)-1H-imidazo[4,5-c]pyridin-4-yl]amino]phenol] | 50 to 100
FC(F)(F)c1cccc(-c2cc3c(cn2)ncn3-c2ccccc2)c1 [Compound 752, 1-phenyl-6-[3-(trifluoromethyl)phenyl]imidazo[4,5-c]pyridine] | 0 to 30
CS(=O)(=O)c1ccc(Nc2cc3[nH]c(-c4cccc(F)c4)cc3cn2)cc1 [Compound 16, 2-(3-fluorophenyl)-N-(4-methylsulfonylphenyl)-1H-pyrrolo[3,2-c]pyridin-6-amine] | 30 to 50
COc1cncc(-c2cc3c(cn2)nc(-c2ccco2)n3C)c1 [Compound 764, 2-(2-furyl)-6-(5-methoxy-3-pyridyl)-1-methyl-imidazo[4,5-c]pyridine] | 0 to 30
COc1ccc(-c2nc3c(Nc4cccc(O)c4)nccc3[nH]2)cc1OC [Compound 352, 3-[[2-(3,4-dimethoxyphenyl)-1H-imidazo[4,5-c]pyridin-4-yl]amino]phenol] | > 100
Oc1ccc(Nc2nccc3[nH]c(-c4ccccc4)cc23)cc1 [Compound 317, 4-[(2-phenyl-1H-pyrrolo[3,2-c]pyridin-4-yl)amino]phenol] | 50 to 100
COc1ccc(-c2nc3c(Nc4cccc(O)c4)nccc3[nH]2)cc1 [Compound 397, 3-[[2-(4-methoxyphenyl)-1H-imidazo[4,5-c]pyridin-4-yl]amino]phenol] | 50 to 100
CN(C)c1cccc(-c2cc3c(cn2)nc(NCc2ccccc2)n3C)c1 [Compound 620, N-benzyl-6-[3-(dimethylamino)phenyl]-1-methyl-imidazo[4,5-c]pyridin-2-amine] | > 100
COc1ccccc1-c1cc2c(Nc3ccncc3)nccc2[nH]1 [Compound 295, 2-(2-methoxyphenyl)-N-(4-pyridyl)-1H-pyrrolo[3,2-c]pyridin-4-amine] | 50 to 100
COc1ccc(Nc2nccc3[nH]c(-c4ccncc4)nc23)cc1OC [Compound 423, N-(3,4-dimethoxyphenyl)-2-(4-pyridyl)-1H-imidazo[4,5-c]pyridin-4-amine] | > 100
COc1ccc(Nc2cc3c(cn2)nc(NCc2ccc(OC)c(OC)c2)n3C)c(OC)c1 [Compound 602, N6-(2,4-dimethoxyphenyl)-N2-[(3,4-dimethoxyphenyl)methyl]-1-methyl-imidazo[4,5-c]pyridine-2,6-diamine] | 30 to 50
CNc1nc2cnc(-c3cccc(OC(F)(F)F)c3)cc2n1Cc1ccccc1 [Compound 762, 1-benzyl-N-methyl-6-[3-(trifluoromethoxy)phenyl]imidazo[4,5-c]pyridin-2-amine] | 0 to 30
COc1cc(Nc2nccc3c2cc(-c2ccc(C(=O)N(C)C)cc2)n3C)cc(C(F)(F)F)c1 [Compound 220, N,N-dimethyl-4-[1-methyl-4-(3-methoxy-5-(trifuloromethyl)phenylamino)pyrrolo[3,2-c]pyridin-2-yl]benzamide] | 0 to 30
COc1ccc(OC)c(CCNc2nc3cnc(-c4cccc(C(N)=O)c4)cc3n2C)c1 [Compound 822, 3-[2-[2-(2,5-dimethoxyphenyl)ethylamino]-1-methyl-imidazo[4,5-c]pyridin-6-yl]benzamide] | 0 to 30

— patent publication EP2818472A1, “Imidazo[4,5-c]pyridine and pyrrolo[3,2-c]pyridine compounds as G-protein-coupled receptor kinase 5 (GRK5) modulators” (Max-Planck-Gesellschaft zur Förderung der Wissenschaften …, priority 2013, dated 2014)
